Test results taken from ChEMBL document CHEMBL1129829, “Synthesis and biological activity of P2P4 azapeptidomimetic P1-argininal and P1-ketoargininamide derivatives: a novel class of serine protease inhibitors” (Bioorg Med Chem Lett, 1997).

How the values were obtained:
Serine protease 1 [1] = molecular target: T1, Serine protease 1 (Bos taurus, UniProt P00760); test: Compound was evaluated for its 50% inhibitory concentration against cow protease enzyme trypsin
T1 sequence (P00760 whole entry): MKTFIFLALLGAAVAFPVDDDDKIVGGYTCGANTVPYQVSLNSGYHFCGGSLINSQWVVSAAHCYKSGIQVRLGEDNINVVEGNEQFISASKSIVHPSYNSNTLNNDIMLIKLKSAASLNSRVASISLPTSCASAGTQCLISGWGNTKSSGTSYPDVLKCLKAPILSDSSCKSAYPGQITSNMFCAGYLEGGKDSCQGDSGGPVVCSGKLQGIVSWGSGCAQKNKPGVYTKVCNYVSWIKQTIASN

Coagulation factor X [2] = molecular target: T2, Coagulation factor X (Homo sapiens, UniProt P00742); test: Compound was evaluated for its 50% inhibitory concentration against Coagulation factor X
T2 sequence (P00742 41-179 limits assumed): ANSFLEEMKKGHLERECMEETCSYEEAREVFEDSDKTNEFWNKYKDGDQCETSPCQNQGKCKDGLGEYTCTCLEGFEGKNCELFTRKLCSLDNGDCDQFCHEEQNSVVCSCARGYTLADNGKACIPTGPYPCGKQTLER
T2 sequence (P00742 235-488 limits assumed): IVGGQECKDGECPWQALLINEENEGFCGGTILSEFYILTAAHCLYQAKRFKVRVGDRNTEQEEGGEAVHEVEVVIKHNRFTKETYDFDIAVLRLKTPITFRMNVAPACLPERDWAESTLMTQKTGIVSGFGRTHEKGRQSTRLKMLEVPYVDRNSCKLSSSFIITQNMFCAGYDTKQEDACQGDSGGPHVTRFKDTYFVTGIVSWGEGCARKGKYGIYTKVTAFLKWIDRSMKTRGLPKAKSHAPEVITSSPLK

Prothrombin [3] = molecular target: T3, Prothrombin (Homo sapiens, UniProt P00734); test: Compound was evaluated for its 50 percent inhibitory concentration against human thrombin factor (FIIa)
Coagulation factor VII [4] = molecular target: T4, Coagulation factor VII (Homo sapiens, UniProt P08709); test: Compound was evaluated for its 50 percent inhibitory concentration against human Coagulation factor VII
T4 sequence (P08709 whole entry): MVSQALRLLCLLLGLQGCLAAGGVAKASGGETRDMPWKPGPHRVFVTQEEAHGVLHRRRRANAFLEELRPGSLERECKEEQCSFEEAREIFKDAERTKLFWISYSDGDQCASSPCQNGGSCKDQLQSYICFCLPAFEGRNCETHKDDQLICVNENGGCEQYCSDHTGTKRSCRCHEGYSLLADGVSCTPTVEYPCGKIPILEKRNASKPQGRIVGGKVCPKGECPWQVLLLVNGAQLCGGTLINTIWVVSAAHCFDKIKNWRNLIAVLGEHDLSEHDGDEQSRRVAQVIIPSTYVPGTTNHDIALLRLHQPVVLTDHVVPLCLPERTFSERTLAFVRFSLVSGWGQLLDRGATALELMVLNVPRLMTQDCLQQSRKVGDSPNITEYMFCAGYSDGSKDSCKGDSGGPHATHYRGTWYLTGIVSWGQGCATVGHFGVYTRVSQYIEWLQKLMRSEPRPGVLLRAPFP

Plasminogen [5] = molecular target: T5, Plasminogen (Homo sapiens, UniProt P00747); test: Compound was evaluated for its 50% inhibitory concentration against human protease enzyme plasmin
T5 sequence (P00747 97-580 limits assumed): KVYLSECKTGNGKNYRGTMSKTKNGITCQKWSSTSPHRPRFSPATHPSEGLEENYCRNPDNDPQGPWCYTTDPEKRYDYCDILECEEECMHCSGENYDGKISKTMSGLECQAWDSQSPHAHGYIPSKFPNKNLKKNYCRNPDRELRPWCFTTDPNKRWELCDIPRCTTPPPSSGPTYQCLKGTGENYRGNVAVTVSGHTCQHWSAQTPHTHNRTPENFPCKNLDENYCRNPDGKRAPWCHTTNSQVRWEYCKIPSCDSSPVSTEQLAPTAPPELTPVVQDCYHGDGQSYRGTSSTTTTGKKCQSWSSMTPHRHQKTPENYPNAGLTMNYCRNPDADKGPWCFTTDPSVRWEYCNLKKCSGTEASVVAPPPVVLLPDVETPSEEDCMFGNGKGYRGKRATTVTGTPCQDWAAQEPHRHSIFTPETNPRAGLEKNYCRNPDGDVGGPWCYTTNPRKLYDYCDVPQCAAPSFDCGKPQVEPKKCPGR
T5 sequence (P00747 581-810 limits assumed): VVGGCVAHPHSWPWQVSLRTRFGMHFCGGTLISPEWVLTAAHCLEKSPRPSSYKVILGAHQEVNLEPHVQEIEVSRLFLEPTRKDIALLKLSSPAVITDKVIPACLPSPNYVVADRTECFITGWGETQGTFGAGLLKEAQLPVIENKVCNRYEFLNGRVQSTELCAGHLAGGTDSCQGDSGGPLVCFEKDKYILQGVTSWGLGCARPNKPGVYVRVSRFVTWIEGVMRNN

Coagulation factor X [6] = molecular target: T2, Coagulation factor X
Plasminogen [7] = molecular target: T5, Plasminogen
Plasminogen [8] = molecular target: T5, Plasminogen; test: Compound was evaluated for its 50% inhibitory concentration against human protease enzyme plasmin; Inactive
Coagulation factor VII [9] = molecular target: T4, Coagulation factor VII; test: Compound was evaluated for its 50 percent inhibitory concentration against human Coagulation factor VII; inactive
Serine protease 1 [10] = molecular target: Serine protease 1 (Homo sapiens, UniProt P07477); test: Compound was evaluated for its 50% inhibitory concentration against human protease enzyme trypsin
Chain of Serine protease 1 (Homo sapiens, UniProt P07477) (P07477 whole entry): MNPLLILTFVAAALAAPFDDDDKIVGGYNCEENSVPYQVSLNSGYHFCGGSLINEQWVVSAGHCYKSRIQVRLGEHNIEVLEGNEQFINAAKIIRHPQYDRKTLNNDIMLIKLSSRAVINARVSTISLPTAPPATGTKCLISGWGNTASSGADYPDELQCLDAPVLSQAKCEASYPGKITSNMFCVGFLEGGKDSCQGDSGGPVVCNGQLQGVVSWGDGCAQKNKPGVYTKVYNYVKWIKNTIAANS

Prothrombin [11] = molecular target: T3, Prothrombin
Coagulation factor VII [12] = molecular target: T4, Coagulation factor VII; test: Compound was evaluated for its 50 percent inhibitory concentration against human Coagulation factor VII: Inactive

IC50 (Serine protease 1 [1]) [nM] | IC50 (Coagulation factor X [2]) [nM] | IC50 (Prothrombin [3]) [µM] | IC50 (Coagulation factor VII [4]) [µM] | IC50 (Plasminogen [5]) [nM] | IC50 (Coagulation factor X [6]) | IC50 (Plasminogen [7]) | IC50 (Plasminogen [8]) | IC50 (Coagulation factor VII [9]) | IC50 (Serine protease 1 [10]) [µM] | IC50 (Prothrombin [11]) | IC50 (Coagulation factor VII [12]) | SMILES
0.76 | 698 | 0.0023 | 0.706 | 2710 | – | – | – | – | – | – | – | CC(C)(C)OC(=O)N[C@@H](CC(=O)O)C(=O)N1CCCC1C(=O)N[C@@H](CCCN=C(N)N)C(=O)C(=O)NCCc1ccccc1 (some centres undefined)
590 | – | 22.1 | > 25 | – | Not Active | Not Active | – | – | – | – | – | CCOC(=O)CN(NC(C)=O)C(=O)[C@@H]1CCCC[C@H]1C(=O)N[C@H](C=O)CCCN=C(N)N
– | – | 13.2 | – | – | Not Active | – | Not Active | Not Active | 22.2 | – | – | CCCC(CCC)C(=O)NN(CC(=O)OCC)C(=O)[C@@H]1CCCC[C@H]1C(=O)N[C@@H](CCCN=C(N)N)C(=O)C(=O)NCCc1ccccc1
250 | – | > 2.5 | 22 | – | Not Active | Not Active | – | – | – | – | – | CCOC(=O)CN(NC(=O)OC(C)(C)C)C(=O)[C@@H]1CCCC[C@H]1C(=O)N[C@H](C=O)CCCN=C(N)N
– | – | 12.8 | > 25 | – | Not Active | Not Active | – | – | 5.7 | – | – | CC(=O)NN(CCCc1ccccc1)C(=O)[C@@H]1CCCC[C@H]1C(=O)N[C@H](C=O)CCCN=C(N)N
108 | – | 3.2 | 8.5 | > 2500 | Not Active | – | – | – | – | – | – | CC(=O)NN(Cc1ccccc1)C(=O)[C@@H]1CCCC[C@H]1C(=O)N[C@@H](CCCN=C(N)N)C(=O)C(=O)NCCc1ccccc1
> 2500 | – | – | > 25 | – | Not Active | Not Active | – | – | – | Not Active | – | CC(=O)NN(Cc1ccccc1)C(=O)[C@@H]1CCCC[C@H]1C(=O)N[C@H](C=O)CCCN=C(N)N
> 2500 | – | > 2.5 | > 25 | – | Not Active | Not Active | – | – | – | – | – | CC(C)(C)OC(=O)NN(Cc1ccccc1)C(=O)[C@@H]1CCCC[C@H]1C(=O)N[C@H](C=O)CCCN=C(N)N
250 | – | > 2.5 | 25 | – | Not Active | Not Active | – | – | – | – | – | CCOC(=O)CN(NC(=O)OC(C)(C)C)C(=O)[C@@H]1CCCC[C@H]1C(=O)N[C@@H](CCCN=C(N)N)C(=O)C(=O)NCCc1ccccc1
1310 | – | – | 18 | – | Not Active | Not Active | – | – | – | Not Active | – | COC(=O)CN(NC(=O)OC(C)(C)C)C(=O)[C@@H]1CCCC[C@H]1C(=O)N[C@@H](CCCN=C(N)N)C(=O)C(=O)NCCc1ccccc1
– | – | 0.88 | – | – | Not Active | Not Active | – | – | 0.25 | – | Not Active | CC(C)(C)OC(=O)NN(Cc1ccccc1)C(=O)[C@@H]1CCCC[C@H]1C(=O)N[C@@H](CCCN=C(N)N)C(=O)C(=O)NCCc1ccccc1
156 | > 2500 | – | 4.3 | > 2500 | – | – | – | – | – | – | – | CC(=O)N[C@H](Cc1ccccc1)C(=O)N1CCC[C@H]1C(=O)N[C@H]1CCCN(C(=N)N)C1O (some centres undefined)
